Where two headings read alike, the source gives them in different places.
Tests used:
V79 cells [1] = assay: Micronucleus assay; details: for micronucleus assay outcome at 50 μM (printed in Figure 2A) / Micronucl. Assay: V79; for Micronucl. Assay: summary grade
Experimental: We analyzed the frequency of micronuclei in binucleated cells, as described [86]. Briefly, logarithmically growing cells were treated with cytochalasin B (3 µg/m) for 24 h. After fixation with formaldehyde (3.7% in PBS, 20 min, RT) and washing with PBS, cells were permeabilized using precooled methanol (20 min, −20 °C.) After washing with PBS and rinsing the cell layer with PBS containing Triton X100 (PBST; 0.3% Triton X100 in PBS), DNA was stained by DAPI (4´,6-diamino-2-phenylindole) and the number of micronuclei was evaluated by fluorescence microscopy. Data shown are the mean ± SEM of three independent experiments with ≥1000 binucleated cells evaluated per experimental condition.

[2] = test system: IMR-32 neuroblastoma cells; assay: Alamar blue assay (cell viability), IMR-32 cells; assay type: cell-based, human
Experimental: (§1) V79 hamster lung cells, which are recommended in the OECD toxicology guidelines for hazard identification (i.e., cytotoxicity and genotoxicity) of chemicals, were purchased from the German Collection of Microorganisms and Cell Cultures (DSMZ, Braunschweig, Germany). They were cultured in Dulbecco´s modified Eagle medium and Ham´s F12 medium (DMEM/F12) (PromoCell, Heidelberg, Germany) containing 10% fetal calf serum at 37 °C in a humidified atmosphere containing 5% CO2. VC8 hamster cells were defective in DNA double-strand break (DSB) repair by homologous recombination (HR) due to the lack of functional BRCA2 protein [69, 70]. VC8 cells were provided by B. Kaina (Institute of Toxicology, Mainz, Germany). Nucleotide excision repair defective XPA and CSB deficient cells were also provided by B. Kaina and were described before. They were grown in DMEM containing 10% fetal calf serum. Human neuroblastoma cells (IMR-32 and SH-SY5Y) were purchased from the German Collection of Microorganisms and Cell Cultures (DSMZ, Braunschweig, Germany) and were used as a model of malignant cells. They were grown in DMEM or RPMI (Roswell park memorial institute) medium, respectively, containing 10% fetal calf serum. If not stated otherwise, HDACi were added to the exponentially growing cells and analyses were performed 6 h to 72 h later.
(§2) Cell viability was determined using the Alamar blue assay, which reflected the mitochondrial activity. Viable cells were characterized by an effective mitochondrial metabolization of the non-fluorescent dye resazurin (Sigma, Steinheim, Germany) to fluorescent resorufin (excitation: 535 nm, emission: 590 nm). Relative viability in the untreated control was set to 100%. In addition, the Neutral red assay, which measures the integrity of lysosomal membranes, was used to monitor cytotoxicity. To this end, cells were incubated with the Neutral red solution (0.01%) in an atmosphere containing 5% CO2 for 90 min before they were fixed (1% formaldehyde/1% CaCl2). Afterwards, the Neutral red that was taken up by the cells was extracted (50% ethanol/1% of acetic acid, 15 min at room temperature (RT)) and absorbance (540 nm) was measured. If not stated otherwise, data are shown as the mean ± standard deviation (SD) of two to three independent experiments each performed in quadruplicate. Approximate IC50 (~IC50, see Supplementary Table S1) were calculated from the corresponding dose-response curves.

V79 cells [3] = assay: Alkaline comet assay (DNA strand breaks); details: for Mean (% DNA in tail) / DNA strand breaks (comet assay): 24 h; for Mean (% DNA in tail) / Comet Assay: V79; for Mean (% DNA in tail): untreated control 16.8; for DNA strand breaks (comet assay): V79, in words; for Comet Assay: summary grade
Experimental: The formation of DNA strand breaks and apurinic/apyrimidinic sites was monitored employing the alkaline comet assay [87], which is part of the OECD guideline of in vivo genotoxicity testings and detects DNA strand breaks (DNA single- and double-strand breaks) and alkali-labile sites [87]. Briefly, after aspiration of the medium and trypsinization, cells were mixed with 0.5% melting agarose and transferred onto agarose-coated (1.5%) slides. After lysis in alkaline buffer (pH 10) (1 h, 4 °C, light protection) and unwinding of the DNA in precooled lysis buffer (pH >13) (20 min, 4 °C, light protection), electrophoresis was performed (electric current: 300 mA constant; 1 V/cm). After neutralization in salt buffer (pH 7.5) and staining with propidium iodide solution (50 µg/mL), comets were evaluated by fluorescence microscopy. Quantification of migrated DNA was performed with TriTek Comet Score™ software Version 1.5, evaluating ≥50 cells per condition (blinded assessment). […] Fold increase in tail intensities of treated cells were calculated by relating the % DNA in tail of treated cells to that of the corresponding untreated controls, which were set to 1.0 (see Figure 2B).

[4] = test system: IMR-32 neuroblastoma cells; assay: Neutral red assay (cytotoxicity), IMR-32 cells; assay type: cell-based, human
Experimental: as §1, §2

XPA-deficient cells = assay: Viability of XPA-deficient versus proficient fibroblasts (Alamar blue); assay type: cell-based, human; details: 72 h, in words
Experimental: Figure 7 Sensitivity of nucleotide excision repair (NER) defective cells to hydroxamic acid- and benzamide-type HDACi. Viability of wild-type human fibroblasts and fibroblasts defective in nucleotide excision repair (NER) pathways (i.e., global genome nucleotide excision repair (GG-NER) or transcription-coupled nucleotide excision repair (TC-NER)) due to a defect in Xeroderma pigmentosum group A protein (XPA) or Cockayne syndrome protein B (CSB), respectively, was analyzed 72 h after the addition of HDACi by the Alamar blue assay, as described in Methods. The DNA intrastrand cross-linking agent cisplatin was used for control. Data shown are the mean ± SD from three independent experiments (n = 3) each performed in triplicate (N = 3); ns, not significant; *, p ≤ 0.05; **, p ≤ 0.01 as compared to the corresponding untreated controls (Student´s t-test).
V79 hamster lung cells, which are recommended in the OECD toxicology guidelines for hazard identification (i.e., cytotoxicity and genotoxicity) of chemicals, were purchased from the German Collection of Microorganisms and Cell Cultures (DSMZ, Braunschweig, Germany). They were cultured in Dulbecco´s modified Eagle medium and Ham´s F12 medium (DMEM/F12) (PromoCell, Heidelberg, Germany) containing 10% fetal calf serum at 37 °C in a humidified atmosphere containing 5% CO2. VC8 hamster cells were defective in DNA double-strand break (DSB) repair by homologous recombination (HR) due to the lack of functional BRCA2 protein [69, 70]. VC8 cells were provided by B. Kaina (Institute of Toxicology, Mainz, Germany). Nucleotide excision repair defective XPA and CSB deficient cells were also provided by B. Kaina and were described before. […]
Cell viability was determined using the Alamar blue assay, which reflected the mitochondrial activity. […] Afterwards, the Neutral red that was taken up by the cells was extracted (50% ethanol/1% of acetic acid, 15 min at room temperature (RT)) and absorbance (540 nm) was measured. […] Approximate IC50 (~IC50, see Supplementary Table S1) were calculated from the corresponding dose-response curves.

V79 hamster lung cells = assay: Neutral red assay (cytotoxicity), V79 cells; assay type: cell-based
Experimental: as §1, §2

V79 cells [5] = assay: DNA damage response (DDR) activation by Western blot; assay type: cell-based, hamster; details: for activation of DDR factors (γH2AX, p-p53, p-Chk1, p-Chk2, p-Kap1 protein levels): V79, Western blot, in words; for DDR Activation: summary grade, V79; for DDR Activation: key: −: no effect; 0: weak effect; +: moderate effect; ++: strong effect; +++: very strong effect as compared to untreated controls
Experimental: The activation of the DDR was investigated by Western blot analysis. To this end, total cell extracts were obtained by lysing an equal number of cells in Roti®-Load buffer (Carl Roth GmbH (Karlsruhe, Germany)) (5 min, RT). After sonication (EpiShear™ Probe sonicator, Active Motif, La Hulpe, Belgium), proteins were denatured by heating (5 min, 95 °C) and separated by SDS-PAGE (6% or 12.5% gel). Proteins were transferred onto a nitrocellulose membrane (GE Healthcare, Little Chalfont, UK) via the Protean Mini Cell System (BioRad (München, Germany)). The membrane was blocked with 5% non-fat milk in TBS/0.1% Tween 20 (MERCK, Darmstadt, Germany) (2 h, RT) and incubated with the corresponding primary antibody (1:1000, overnight, 4 °C). After washing with TBS/0.1% Tween 20, the secondary (peroxidase-conjugated) antibody was added (1:2000, 2 h, RT). The Fusion FX7 imaging system (PeqLab, Erlangen, Germany) was used for visualization of the bound antibodies. The following primary antibodies were used: Anti-Ser15 phosphorylated protein 53 (p-p53), anti-Talin-1, anti-Ser 345 checkpoint kinase 1 (p-Chk1), anti-cleaved caspase 3 and 7 (Cell Signaling, Beverly, MA, USA), anti-Ser824 phosphorylated Krüppel-associated box domain (KRAB)-associated protein-1 (p-Kap1), anti-Ser1981 phosphorylated ataxia telangiectasia mutated (pATM) and anti-Thr68 phosphorylated checkpoint kinase-2 (p-Chk2) (both Abcam, Cambridge, MA, USA), anti-Ser139 phosphorylated histone H2AX (γH2AX, Millipore, Billerica, MA, USA), and anti-β-actin (Santa Cruz, CA, USA). As secondary antibodies, horseradish peroxidase-conjugated secondary antibodies goat anti-mouse IgG and mouse anti-rabbit IgG (Rockland, Limerick, PA, USA) (2 h, RT) were used.

V79 cells [6] = assay: Cell cycle distribution / SubG1 fraction by flow cytometry; assay type: cell-based, hamster; details: 24 h, in words
Experimental: For flow cytometry-based analysis of cell cycle distribution, cells were trypsinized and combined with floating cells present in the medium. Following fixation with ice-cold ethanol (80%) (≥1 h, −20 °C), cells were pelleted (1000× g, 10 min, 4 °C) and suspended in phosphate-buffered saline (PBS). DNase-free RNase A (Serva, Heidelberg, Germany) was added (2 μg/mL, 1 h at RT). Nuclei were stained with propidium iodide (36.7 μg/mL Sigma, Steinheim, Germany) and analysis was performed using BD Accuri™C6 flow cytometer (BD, Franklin Lakes, NJ, USA).

[7] = 24 h, approximate IC50, read-out: IC50 - 24 h Treatment, IMR-32
[8] = 72 h, approximate IC50, read-out: IC50 - 72 h Treatment, IMR-32
[9] = 24 h, approximate IC50, read-out: IC50 - 24 h Treatment, V79
[10] = 72 h, approximate IC50, read-out: IC50 - 72 h Treatment, V79
[11] = Homo sapiens, IMR-32, 24 h, approximate IC50, read-out: IC50 - 24 h Treatment, IMR-32
[12] = Homo sapiens, IMR-32, 72 h, approximate IC50, read-out: IC50 - 72 h Treatment, IMR-32

SMILES | micronucleus assay outcome at 50 μM (printed in Figure 2A) (V79 cells [1]) | Micronucl. Assay (V79 cells [1]) | IC50 [2, 7] [nM] | IC50 [2, 8] [nM] | Mean (% DNA in tail) (V79 cells [3]; 2 µM) | Mean (% DNA in tail) (V79 cells [3]; 10 µM) | Mean (% DNA in tail) (V79 cells [3]; 50 µM) | DNA strand breaks (comet assay) (V79 cells [3]) | Comet Assay (V79 cells [3]) | IC50 [4, 7] [nM] | IC50 [4, 8] [nM] | sensitivity of XPA-deficient versus XPA proficient cells (XPA-deficient cells) | IC50 (V79 hamster lung cells; [9]) [nM] | IC50 (V79 hamster lung cells; [10]) [nM] | activation of DDR factors (γH2AX, p-p53, p-Chk1, p-Chk2, p-Kap1 protein levels) (V79 cells [5]) | DDR Activation (V79 cells [5]) | Mean (% DNA in tail) (V79 cells [3]; 100 µM) | percentage of V79 cells in the SubG1 fraction (V79 cells [6]) | also measured
CN(C)c1ccc(C(=O)N(CC(=O)NCc2ccccc2)Cc2ccc(C(=O)NO)cc2)cc1 [DDK137] | Cytotoxic | + | 600 | 200 | 15.1 | 6.9 | 17.3 | did not cause a significant rise in DNA damage | − | 10000 | 300 | XPA-deficient cells are even more resistant | 36000 | 17000 | substantial increase in γH2AX levels but no, or only a minor, increase in p-p53 and p-Chk1/p-Chk2 levels | + |  |  | 
Nc1ccccc1NC(=O)c1ccc(CNC(=O)OCc2cccnc2)cc1 [Entinostat, entinostat, reference compound] |  |  |  |  |  | 34.5 | 37.8 | only promoted the formation of DNA strand breaks | − |  |  |  |  |  | substantial increase in γH2AX levels but no, or only a minor, increase in p-p53 and p-Chk1/p-Chk2 levels | + | 34.9 | did not increase the percentage of cells present in the SubG1 fraction | IC50 [2, 11]: 50000 nM; IC50 [2, 12]: 2000 nM; IC50 [4, 11]: > 50000 nM; IC50 [4, 12]: 3000 nM; IC50 (V79 hamster lung cells; V79, 24 h, approximate IC50, read-out: IC50 - 24 h Treatment, V79): > 50000 nM; IC50 (V79 hamster lung cells; V79, 72 h, approximate IC50, read-out: IC50 - 72 h Treatment, V79): 2000 nM
Nc1ccc(F)cc1NC(=O)c1ccc(CONC(=O)C=Cc2cccnc2)cc1 [MPK77] |  | + | 3000 | 2000 |  | 34.0 | 48.1 | significant increase in DNA strand breaks at all concentrations tested | + | 9000 | 3000 |  | > 50000 | 35000 | failed to provoke a clear increase in γH2AX protein level | − | 35.5 | neither induced cell death as reflected by an increase in the SubG1 population | frequency of micronuclei (V79 cells [1]; 24 h, V79, in words): slight but significant increase in the frequency of micronuclei
O=C(CCCCCCC(=O)Nc1ccccc1)NO [Vorinostat, vorinostat, reference compound] | Cytotoxic | + |  |  | 14.0 | 8.0 | 13.2 | did not cause a significant rise in DNA damage | − |  |  | XPA-deficient cells are even more resistant |  |  | substantial increase in γH2AX levels but no, or only a minor, increase in p-p53 and p-Chk1/p-Chk2 levels | + |  | moderate increase of the percentage of V79 cells present in the SubG1 fraction | 

Source: article PMC7370100, “In Vitro Assessment of the Genotoxic Hazard of Novel Hydroxamic Acid- and Benzamide-Type Histone Deacetylase Inhibitors (HDACi)” (International Journal of Molecular Sciences, 2020)
